Tests used:
[1] = Haldol in urine samples before hydrolysis; type: in vivo, human; settings: Without Hydrolysis; summary of Table 1, N 151
[2] = Haldol in urine samples after hydrolysis with a betaglucuronidase enzyme; type: in vivo, human
[3] = With hydrolysis, summary of Table 1, N 151

Avg [1]: 30.7
Max [1]: 414.0
Min [1]: 0.0
Avg [2, 3]: 982.5
Max [2, 3]: 16805.6
Min [2, 3]: 0.0
amount of Haldol determined in urine samples post hydrolysis versus before ([2]; human urine, betaglucuronidase hydrolysis): increased post hydrolysis
SMILES: O=C(CCCN1CCC(O)(c2ccc(Cl)cc2)CC1)c1ccc(F)cc1 [Haldol, Haloperidol]

From patent publication US20170029866A1 (Ameritox, Ltd, priority 2015, published 2017)
